The source made the active and inactive calls. The calls are words filed in the database; no cut-off is given here.
What was measured:
Rattus norvegicus [1] = test: Effect on spleen weight in Lewis rat with implanted cotton pellets at 10 mg/kg, po bid; type: functional
Rattus norvegicus [2] = test: Effect on body weight change in Lewis rat with implanted cotton pellets at 19 mg/kg, po bid for 7 days; type: functional
[3] = target: T1, Interstitial collagenase (Homo sapiens) (UniProt P03956); test: Inhibition of glucocorticoid-mediated human MMP1 expression in PMA stimulated A549 cells assessed as MMP1 protein level by ELISA relative to Dexamethasone; type: cell-based; parameters: scale not given: the % may be the effect or the level left
T1 sequence (whole entry): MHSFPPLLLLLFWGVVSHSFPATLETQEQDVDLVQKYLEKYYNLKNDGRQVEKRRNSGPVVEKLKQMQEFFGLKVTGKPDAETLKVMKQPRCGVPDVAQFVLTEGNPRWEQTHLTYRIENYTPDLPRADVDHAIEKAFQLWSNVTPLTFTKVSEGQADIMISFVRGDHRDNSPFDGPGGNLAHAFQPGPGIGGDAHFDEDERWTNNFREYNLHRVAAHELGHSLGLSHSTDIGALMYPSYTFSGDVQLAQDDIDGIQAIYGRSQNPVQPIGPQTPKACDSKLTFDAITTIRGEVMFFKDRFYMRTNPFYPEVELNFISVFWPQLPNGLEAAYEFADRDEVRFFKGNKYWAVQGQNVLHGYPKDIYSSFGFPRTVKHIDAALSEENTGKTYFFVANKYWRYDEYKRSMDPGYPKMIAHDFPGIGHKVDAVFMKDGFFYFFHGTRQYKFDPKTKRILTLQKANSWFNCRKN

Rattus norvegicus [4] = test: Effect on spleen weight in Lewis rat with implanted cotton pellets at 5.0 mg/kg, po bid; type: functional
Rattus norvegicus [5] = test: Effect on adrenal weight in Lewis rat with implanted cotton pellets at 19 mg/kg, po bid; type: functional
Rattus norvegicus [6] = test: Effect on plasma triglyceride level in Zucker fatty rat at 30 mg/kg, after 5 days
Rattus norvegicus [7] = test: Inhibition of granuloma formation in cotton pellet implanted Lewis rat at 19 mg/kg, po bid; type: functional
[8] = Plasma clearance in rat; type: ADME, organism-based
Rattus norvegicus [9] = test: Effect on spleen weight in Lewis rat with implanted cotton pellets at 19 mg/kg, po bid; type: functional
Rattus norvegicus [10] = test: Effect on thymus weight in Lewis rat with implanted cotton pellets at 10 mg/kg, po bid; type: functional
Progesterone receptor = target: T2, Progesterone receptor (Homo sapiens, UniProt P06401); test: Inhibition of human progesterone receptor
T2 sequence (P06401 whole entry): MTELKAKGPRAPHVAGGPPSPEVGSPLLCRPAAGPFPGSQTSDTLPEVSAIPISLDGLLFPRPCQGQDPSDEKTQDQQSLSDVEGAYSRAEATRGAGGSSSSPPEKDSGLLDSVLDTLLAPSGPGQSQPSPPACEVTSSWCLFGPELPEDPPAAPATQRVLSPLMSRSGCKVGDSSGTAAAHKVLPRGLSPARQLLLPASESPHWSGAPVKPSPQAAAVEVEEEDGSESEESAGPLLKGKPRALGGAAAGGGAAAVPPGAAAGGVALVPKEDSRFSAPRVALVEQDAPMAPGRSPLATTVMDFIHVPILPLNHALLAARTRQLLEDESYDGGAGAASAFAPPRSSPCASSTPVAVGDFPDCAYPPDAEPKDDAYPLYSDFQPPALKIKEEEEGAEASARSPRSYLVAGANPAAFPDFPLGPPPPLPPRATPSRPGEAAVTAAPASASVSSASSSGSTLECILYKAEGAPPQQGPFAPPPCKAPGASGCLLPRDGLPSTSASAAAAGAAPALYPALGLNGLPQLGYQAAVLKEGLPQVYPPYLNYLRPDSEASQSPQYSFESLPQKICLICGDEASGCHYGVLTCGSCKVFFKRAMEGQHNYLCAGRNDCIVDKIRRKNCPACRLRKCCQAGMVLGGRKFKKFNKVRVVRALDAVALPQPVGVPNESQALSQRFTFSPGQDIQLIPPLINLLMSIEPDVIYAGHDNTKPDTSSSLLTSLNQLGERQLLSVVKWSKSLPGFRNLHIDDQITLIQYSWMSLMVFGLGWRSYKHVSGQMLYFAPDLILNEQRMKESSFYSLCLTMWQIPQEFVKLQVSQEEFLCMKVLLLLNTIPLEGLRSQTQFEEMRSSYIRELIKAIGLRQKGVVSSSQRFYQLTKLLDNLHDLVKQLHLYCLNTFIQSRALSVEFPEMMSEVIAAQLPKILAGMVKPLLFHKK

Rattus norvegicus [11] = test: Inhibition of granuloma formation in cotton pellet implanted Lewis rat at 5.0 mg/kg, po bid; type: functional
[12] = Volume of distribution at steady state in rat; type: ADME, organism-based; settings: in vivo, read-out: Vdss
Rattus norvegicus [13] = test: Effect on body weight change in Lewis rat with implanted cotton pellets at 19 mg/kg, po bid for 4 days; type: functional
Rattus norvegicus [14] = test: Effect on body weight change in Lewis rat with implanted cotton pellets at 5.0 mg/kg, po bid for 7 days; type: functional
Rattus norvegicus [15] = test: Effect on body weight change in Lewis rat with implanted cotton pellets at 10 mg/kg, po bid for 4 days; type: functional
Rattus norvegicus [16] = test: Effect on thymus weight in Lewis rat with implanted cotton pellets at 5.0 mg/kg, po bid; type: functional
Rattus norvegicus [17] = test: Effect on plasma insulin level in Zucker fatty rat at 30 mg/kg, after 5 days
Mus musculus = organism: Mus musculus; test: Inhibition of LPS-induced TNFalpha production in mouse; type: functional
Glucocorticoid receptor = target: T3, Glucocorticoid receptor (Homo sapiens, UniProt P04150)
T3 sequence (P04150 whole entry): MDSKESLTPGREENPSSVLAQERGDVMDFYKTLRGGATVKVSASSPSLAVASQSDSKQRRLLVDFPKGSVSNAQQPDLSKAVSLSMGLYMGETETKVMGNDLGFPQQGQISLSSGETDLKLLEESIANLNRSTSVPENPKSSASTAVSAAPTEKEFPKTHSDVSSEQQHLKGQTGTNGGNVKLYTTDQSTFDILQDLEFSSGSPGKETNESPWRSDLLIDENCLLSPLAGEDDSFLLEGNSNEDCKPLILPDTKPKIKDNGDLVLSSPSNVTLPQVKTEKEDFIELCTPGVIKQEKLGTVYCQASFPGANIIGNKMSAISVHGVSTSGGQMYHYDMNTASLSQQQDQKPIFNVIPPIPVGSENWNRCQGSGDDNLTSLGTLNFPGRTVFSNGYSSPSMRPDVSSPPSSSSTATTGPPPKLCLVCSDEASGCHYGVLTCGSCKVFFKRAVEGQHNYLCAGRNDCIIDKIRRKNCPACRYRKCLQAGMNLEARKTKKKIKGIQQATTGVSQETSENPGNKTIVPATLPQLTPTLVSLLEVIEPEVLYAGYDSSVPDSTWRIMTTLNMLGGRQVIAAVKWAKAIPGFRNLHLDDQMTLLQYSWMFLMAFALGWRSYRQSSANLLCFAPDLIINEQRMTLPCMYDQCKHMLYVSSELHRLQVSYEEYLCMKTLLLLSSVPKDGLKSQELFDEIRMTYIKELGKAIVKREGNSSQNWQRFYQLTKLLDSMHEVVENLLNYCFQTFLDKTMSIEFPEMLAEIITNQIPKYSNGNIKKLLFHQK
Description: Inhibition of human glucocorticoid receptor

Rattus norvegicus [18] = organism: Rattus norvegicus; test: Transactivation activity of glutamine synthase in rat skeletal muscle cells relative to Dexamethasone; type: cell-based
[19] = Oral bioavailability in rat; type: ADME, organism-based; settings: in vivo
Rattus norvegicus [20] = test: Effect on plasma glucose level in nonfasted Zucker fatty rat at 30 mg/kg, after 5 days
Rattus norvegicus [21] = test: Effect on thymus weight in Lewis rat with implanted cotton pellets at 19 mg/kg, po bid; type: functional
Rattus norvegicus [22] = test: Effect on body weight change in Lewis rat with implanted cotton pellets at 10 mg/kg, po bid for 7 days; type: functional
[23] = Half life in rat; type: ADME, organism-based; settings: in vivo
Rattus norvegicus [24] = test: Effect on adrenal weight in Lewis rat with implanted cotton pellets at 10 mg/kg, po bid; type: functional
Rattus norvegicus [25] = test: Inhibition of granuloma formation in cotton pellet implanted Lewis rat at 10 mg/kg, po bid; type: functional
Rattus norvegicus [26] = test: Effect on adrenal weight in Lewis rat with implanted cotton pellets at 5.0 mg/kg, po bid; type: functional
Rattus norvegicus [27] = test: Effect on body weight change in Zucker fatty rat at 30 mg/kg, after 5 days
Rattus norvegicus [28] = test: Effect on body weight change in Lewis rat with implanted cotton pellets at 5.0 mg/kg, po bid for 4 days; type: functional

CCNC(=O)O[C@]1(C(=O)CO)[C@@H](C)C[C@H]2[C@@H]3CCC4=CC(=O)C=C[C@]4(C)[C@@]3(F)[C@@H](O)C[C@@]21C
Activity (Rattus norvegicus [1]): 311.2 mg
Activity (Rattus norvegicus [2]): 7.5 g
Activity [3]: 104%
Activity (Rattus norvegicus [4]): 330.9 mg
Activity (Rattus norvegicus [5]): 30.8 mg
Activity (Rattus norvegicus [6]): Active
inhibition in vivo at 19 mg/kg (Rattus norvegicus [7]): 44.6%
clearance [8]: 26 mL/min/kg
Activity (Rattus norvegicus [9]): 305.3 mg
Activity (Rattus norvegicus [10]): 144.9 mg
IC50 (Progesterone receptor): > 1000 nM
inhibition in vivo at 5 mg/kg (Rattus norvegicus [11]): 35.6%
Vd [12]: 3.22 L/kg
Activity (Rattus norvegicus [13]): 5.6 g
Activity (Rattus norvegicus [14]): 11 g
Activity (Rattus norvegicus [15]): 7.3 g
Activity (Rattus norvegicus [16]): 170.7 mg
Activity (Rattus norvegicus [17]): Active
ED50 (Mus musculus): 0.1 mg/kg
IC50 (Glucocorticoid receptor): 5.1 nM
Activity (Rattus norvegicus [18]): 23.4%
bioavailability [19]: 43%
Activity (Rattus norvegicus [20]): Active
Activity (Rattus norvegicus [21]): 119.9 mg
Activity (Rattus norvegicus [22]): 10 g
half-life [23]: 2.2 h
Activity (Rattus norvegicus [24]): 36.8 mg
inhibition in vivo at 10 mg/kg (Rattus norvegicus [25]): 33.5%
Activity (Rattus norvegicus [26]): 39 mg
Activity (Rattus norvegicus [27]): Active
Activity (Rattus norvegicus [28]): 5.9 g

Source: ChEMBL document CHEMBL1156642, “Discovery of betamethasone 17alpha-carbamates as dissociated glucocorticoid receptor modulators in the rat” (Bioorg Med Chem, 2008)
